Source: PubChem BioAssay (NCI)
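Growth conditions: 96-well plates. Treatment: test compound, 48 hours, 5 concentrations. Analysis: linear interpolation between bracketing concentrations; unreached endpoints set to highest concentration. TGI marks complete inhibition of growth.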

Experiments:
Assay in all cases: growth of human tumour cells (NCI), 48 h
[1] = tested on: 786-0 renal
[2] = tested on: A498 renal
[3] = tested on: A549 NSCLC
[4] = tested on: ACHN renal
[5] = tested on: CAKI-1 renal
[6] = tested on: CCRF-CEM leukemia
[7] = tested on: COLO 205 colon
[8] = tested on: DLD-1 colon
[9] = tested on: DMS 273 small cell lung
[10] = tested on: EKVX NSCLC
[11] = tested on: HCC-2998 colon
[12] = tested on: HCT-116 colon
[13] = tested on: HL-60(TB) leukemia
[14] = tested on: HOP-18 NSCLC
[15] = tested on: HOP-62 NSCLC
[16] = tested on: HT29 colon
[17] = tested on: IGROV1 ovarian
[18] = tested on: K-562 leukemia
[19] = tested on: KM12 colon
[20] = tested on: KM20L2 colon
[21] = tested on: LOX IMVI melanoma
[22] = tested on: LXFL 529 NSCLC
[23] = tested on: M14 melanoma
[24] = tested on: M19-MEL melanoma
[25] = tested on: MALME-3M melanoma
[26] = tested on: MOLT-4 leukemia
[27] = tested on: NCI-H226 lung
[28] = tested on: NCI-H23 lung
[29] = tested on: NCI-H460 lung
[30] = tested on: NCI-H522 lung
[31] = tested on: OVCAR-3 ovarian
[32] = tested on: OVCAR-4 ovarian
[33] = tested on: OVCAR-5 ovarian
[34] = tested on: OVCAR-8 ovarian
[35] = tested on: RXF 393 renal
[36] = tested on: RXF-631 renal
[37] = tested on: SF-268 CNS
[38] = tested on: SF-295 CNS
[39] = tested on: SF-539 CNS
[40] = tested on: SK-MEL-2 melanoma
[41] = tested on: SK-MEL-28 melanoma
[42] = tested on: SK-MEL-5 melanoma
[43] = tested on: SK-OV-3 ovarian
[44] = tested on: SN12C renal
[45] = tested on: SNB-19 CNS
[46] = tested on: SNB-75 CNS
[47] = tested on: SNB-78 CNS
[48] = tested on: SR leukemia
[49] = tested on: SW-620 colon
[50] = tested on: TK-10 renal
[51] = tested on: U251 CNS
[52] = tested on: UACC-257 melanoma
[53] = tested on: UACC-62 melanoma
[54] = tested on: UO-31 renal
[55] = tested on: XF 498 CNS
[56] = tested on: HCT-15 colon
[57] = tested on: RPMI-8226 leukemia
[58] = tested on: DMS 114 small cell lung
[59] = tested on: HOP-92 NSCLC

## CCOC(=O)Cc1nc2ccccc2s1
[1]
  TGI: 32.9 µM
[2]
  TGI: 36 µM
[3]
  TGI: 54.2 µM
[4]
  TGI: 32.1 µM
[5]
  TGI: 48.1 µM
[6]
  TGI: 72.8 µM
[7]
  TGI: > 100 µM
[8]
  TGI: 33.5 µM
[9]
  TGI: 55.4 µM
[10]
  TGI: > 100 µM
[11]
  TGI: > 100 µM
[12]
  TGI: 39 µM
[13]
  TGI: 43.9 µM
[14]
  TGI: 74.3 µM
[15]
  TGI: 52 µM
[16]
  TGI: 37.1 µM
[17]
  TGI: > 100 µM
[18]
  TGI: 71.9 µM
[19]
  TGI: > 10 µM
[20]
  TGI: 69.1 µM
[21]
  TGI: 32.4 µM
[22]
  TGI: 29.4 µM
[23]
  TGI: 31 µM
[24]
  TGI: 40.6 µM
[25]
  TGI: 31.2 µM
[26]
  TGI: 65.9 µM
[27]
  TGI: 49.2 µM
[28]
  TGI: 29.3 µM
[29]
  TGI: 39.6 µM
[30]
  TGI: 41.1 µM
[31]
  TGI: > 10 µM
[32]
  TGI: > 10 µM
[33]
  TGI: 57 µM
[34]
  TGI: 32.8 µM
[35]
  TGI: 35.3 µM
[36]
  TGI: 33.8 µM
[37]
  TGI: 39.2 µM
[38]
  TGI: 32.2 µM
[39]
  TGI: 36.6 µM
[40]
  TGI: 36.5 µM
[41]
  TGI: 28.2 µM
[42]
  TGI: 48.5 µM
[43]
  TGI: > 100 µM
[44]
  TGI: 30.5 µM
[45]
  TGI: > 100 µM
[46]
  TGI: 94.1 µM
[47]
  TGI: 33 µM
[48]
  TGI: 48.9 µM
[49]
  TGI: 34.3 µM
[50]
  TGI: 55 µM
[51]
  TGI: 30.7 µM
[52]
  TGI: 33.2 µM
[53]
  TGI: 33.3 µM
[54]
  TGI: 29.7 µM
[55]
  TGI: 28 µM

## COC(=O)C(=O)C(C(=O)C1=NS(=O)(=O)c2cc(S(N)(=O)=O)c(Cl)cc2N1)c1nc2ccc(C(=O)c3ccccc3)cc2[nH]c1=O (configuration not stated)
[1]
  TGI: > 100 µM
[2]
  TGI: > 100 µM
[3]
  TGI: > 100 µM
[4]
  TGI: > 100 µM
[5]
  TGI: > 100 µM
[6]
  TGI: > 100 µM
[7]
  TGI: > 100 µM
[9]
  TGI: > 100 µM
[10]
  TGI: > 100 µM
[11]
  TGI: > 100 µM
[12]
  TGI: > 100 µM
[56]
  TGI: > 100 µM
[14]
  TGI: > 100 µM
[16]
  TGI: > 100 µM
[17]
  TGI: > 100 µM
[18]
  TGI: > 100 µM
[19]
  TGI: > 100 µM
[20]
  TGI: > 100 µM
[22]
  TGI: > 100 µM
[23]
  TGI: > 100 µM
[24]
  TGI: > 100 µM
[25]
  TGI: > 100 µM
[26]
  TGI: > 100 µM
[27]
  TGI: > 100 µM
[28]
  TGI: > 100 µM
[29]
  TGI: > 100 µM
[30]
  TGI: > 100 µM
[32]
  TGI: > 100 µM
[33]
  TGI: > 100 µM
[34]
  TGI: > 100 µM
[57]
  TGI: > 100 µM
[35]
  TGI: > 100 µM
[36]
  TGI: > 100 µM
[37]
  TGI: > 100 µM
[38]
  TGI: > 100 µM
[39]
  TGI: > 100 µM
[40]
  TGI: > 100 µM
[41]
  TGI: > 100 µM
[42]
  TGI: > 100 µM
[44]
  TGI: > 100 µM
[45]
  TGI: > 100 µM
[47]
  TGI: > 100 µM
[48]
  TGI: > 100 µM
[49]
  TGI: > 100 µM
[50]
  TGI: > 100 µM
[51]
  TGI: > 100 µM
[52]
  TGI: > 100 µM
[53]
  TGI: > 100 µM
[54]
  TGI: > 100 µM
[55]
  TGI: > 100 µM

## COc1cccc(NC(=O)C(C)(C)C)c1C=O
[1]
  TGI: > 100 µM
[2]
  TGI: > 100 µM
[3]
  TGI: > 100 µM
[4]
  TGI: > 100 µM
[5]
  TGI: > 100 µM
[6]
  TGI: > 100 µM
[7]
  TGI: > 100 µM
[8]
  TGI: > 100 µM
[58]
  TGI: > 100 µM
[10]
  TGI: > 100 µM
[11]
  TGI: > 100 µM
[12]
  TGI: > 100 µM
[56]
  TGI: > 100 µM
[13]
  TGI: > 100 µM
[14]
  TGI: > 100 µM
[15]
  TGI: > 100 µM
[59]
  TGI: > 100 µM
[16]
  TGI: > 100 µM
[17]
  TGI: > 100 µM
[18]
  TGI: > 100 µM
[19]
  TGI: > 100 µM
[20]
  TGI: > 100 µM
[21]
  TGI: > 100 µM
[22]
  TGI: > 100 µM
[23]
  TGI: > 100 µM
[24]
  TGI: > 100 µM
[25]
  TGI: > 100 µM
[26]
  TGI: > 100 µM
[27]
  TGI: > 100 µM
[28]
  TGI: > 100 µM
[29]
  TGI: > 100 µM
[30]
  TGI: > 100 µM
[31]
  TGI: > 100 µM
[32]
  TGI: > 100 µM
[33]
  TGI: > 100 µM
[34]
  TGI: > 100 µM
[57]
  TGI: > 100 µM
[36]
  TGI: > 100 µM
[37]
  TGI: > 100 µM
[38]
  TGI: > 100 µM
[39]
  TGI: > 100 µM
[40]
  TGI: > 100 µM
[41]
  TGI: > 100 µM
[42]
  TGI: > 100 µM
[43]
  TGI: > 100 µM
[44]
  TGI: > 100 µM
[45]
  TGI: > 100 µM
[46]
  TGI: > 100 µM
[47]
  TGI: > 100 µM
[48]
  TGI: > 100 µM
[49]
  TGI: > 100 µM
[50]
  TGI: > 100 µM
[51]
  TGI: > 100 µM
[52]
  TGI: > 100 µM
[53]
  TGI: > 100 µM
[54]
  TGI: 77.3 µM
[55]
  TGI: 85.4 µM

## CSc1nc(NC2OCC(OC(C)=O)C(OC(C)=O)C2OC(C)=O)c(N=C(C)C(C)=O)c(=O)n1C (configuration not stated)
[1]
  TGI: > 100 µM
[2]
  TGI: > 100 µM
[3]
  TGI: > 100 µM
[4]
  TGI: > 100 µM
[5]
  TGI: > 100 µM
[6]
  TGI: > 100 µM
[7]
  TGI: > 100 µM
[8]
  TGI: > 100 µM
[58]
  TGI: > 100 µM
[9]
  TGI: > 100 µM
[10]
  TGI: > 100 µM
[11]
  TGI: > 100 µM
[12]
  TGI: > 100 µM
[56]
  TGI: > 100 µM
[13]
  TGI: > 100 µM
[14]
  TGI: > 100 µM
[15]
  TGI: > 100 µM
[59]
  TGI: > 100 µM
[16]
  TGI: > 100 µM
[17]
  TGI: > 100 µM
[18]
  TGI: > 100 µM
[19]
  TGI: > 100 µM
[20]
  TGI: > 100 µM
[21]
  TGI: > 100 µM
[22]
  TGI: > 100 µM
[23]
  TGI: > 100 µM
[24]
  TGI: > 100 µM
[25]
  TGI: > 100 µM
[26]
  TGI: > 100 µM
[27]
  TGI: > 100 µM
[28]
  TGI: > 100 µM
[29]
  TGI: > 100 µM
[31]
  TGI: > 100 µM
[32]
  TGI: > 100 µM
[33]
  TGI: > 100 µM
[34]
  TGI: > 100 µM
[57]
  TGI: > 100 µM
[35]
  TGI: > 100 µM
[36]
  TGI: > 100 µM
[38]
  TGI: > 100 µM
[39]
  TGI: > 100 µM
[40]
  TGI: > 100 µM
[42]
  TGI: > 100 µM
[43]
  TGI: > 100 µM
[44]
  TGI: > 100 µM
[45]
  TGI: > 100 µM
[46]
  TGI: > 100 µM
[47]
  TGI: > 100 µM
[49]
  TGI: > 100 µM
[50]
  TGI: > 100 µM
[51]
  TGI: > 100 µM
[52]
  TGI: > 100 µM
[53]
  TGI: > 100 µM
[54]
  TGI: > 100 µM
[55]
  TGI: > 100 µM
